SMILES strings stand for the structures. Activity calls are given as the source filed them. The calls are words filed in the database; no cut-off is given here.

The inhibition is the share of the control response that was lost under treatment.

In data set [1] the target is Amyloid-beta precursor protein (Homo sapiens) (UniProt P05067). Put plainly: Binding affinity to amyloid beta (1 to 42) (unknown origin) assessed as retention time for amyloid beta (1 to 42)-compound adduct formation at 250 uM after 1 hr by LC/Q Tof-MS analysis.
Data set [2] is described as follows: Drug level in pH 7.4 PBS at 50 uM measured after 0 hrs by HPLC analysis. It counts as physicochemical. Particulars: buffer, pH 7.4, 0 h.
A short description of data set [3]: Drug level in pH 7.4 PBS treated with apomorphine at 50 uM up to 8 hrs by UV-Visible spectroscopic analysis. It counts as physicochemical. Particulars: buffer, pH 7.4, 8 h.
Data set [4] addresses Amyloid-beta precursor protein (Homo sapiens) (UniProt P05067). Put plainly: Inhibition of amyloid beta (1 to 42) (unknown origin)-mediated toxicity in human SH-SY5Y cells at 500 uM preincubated with amyloid beta (1 to 42) for 30 mins followed by addition to cells measured after 24 hrs by MTT assay. It counts as cell-based. (In general: Formazan colour is commonly taken as a measure of viable cells.)

The nature of data set [5]: Drug level in pH 7.4 PBS at 50 uM measured after 48 hrs by HPLC analysis. It counts as physicochemical. The settings on record: buffer, pH 7.4, 48 h.
The target in data set [6] is Amyloid-beta precursor protein (Homo sapiens) (UniProt P05067). Description: Inhibition of amyloid beta (1 to 42) (unknown origin) aggregation at 5 uM after 48 hrs by Thioflavin-T fluorescence assay relative to control.
Data set [7] in a line: Drug level in pH 7.4 PBS at 50 uM measured after 24 hrs by HPLC analysis. Particulars: buffer, pH 7.4, 24 h. It counts as physicochemical.
Data set [8] can be described thus: Drug level in pH 7.4 PBS at 50 uM measured after 2 hrs by HPLC analysis. The settings on record: buffer, pH 7.4, 2 h. It counts as physicochemical.
Data set [9] is described as follows: Drug level in pH 7.4 PBS at 50 uM measured after 1 hr by HPLC analysis. The settings on record: buffer, pH 7.4, 1 h. It counts as physicochemical.
Data set [10] is described as follows: Drug level in pH 7.4 PBS treated with apomorphine at 8 uM measured immediately by HPLC analysis. It is filed as physicochemical. Particulars: buffer, pH 7.4, 8 µM.
A short description of data set [11]: Drug level in pH 7.4 PBS treated with apomorphine at 50 uM measured after 8 hrs by HPLC analysis. The settings on record: buffer, pH 7.4, 8 h. It counts as physicochemical.
Data set [12] is described as follows: Drug level in pH 7.4 PBS at 50 uM measured after 4 hrs by HPLC analysis. It counts as physicochemical. Particulars: buffer, pH 7.4, 4 h.
Data set [13] can be described thus: Drug level in pH 7.4 PBS at 50 uM measured after 8 hrs by HPLC analysis. It is filed as physicochemical. Particulars: buffer, pH 7.4, 8 h.
In data set [14] the target is Amyloid-beta precursor protein (Homo sapiens) (UniProt P05067). Description: Inhibition of HFIP pretreated amyloid beta (1 to 42) (unknown origin) aggregation assessed as time for nucleation phase of aggregation at 5 uM by Thioflavin-T fluorescence assay (reference value: 4 to 5 hrs).
For data set [15] the target is unchanged. Description: Inhibition of amyloid beta (1 to 42) (unknown origin) aggregation at 5 uM by Thioflavin-T fluorescence assay. The settings on record: TDE = time-dependent effect.
Data set [16] is described as follows: Drug level in pH 7.4 PBS treated with apomorphine at 8 to 50 uM measured up to 24 hrs by HPLC analysis. It counts as physicochemical. Particulars: buffer, pH 7.4, 24 h.
For data set [17], the target named is Amyloid-beta precursor protein (Homo sapiens) (UniProt P05067). Put plainly: Binding affinity to amyloid beta (9 to 35) E22P M35ox mutant (unknown origin) oxidized at M35 residue assessed as E22P M35ox(Lys16/Lys28)-compound adduct formation at 250 uM after 1 hr by LC/Q Tof-MS analysis.
For data set [18] the target is unchanged. Put plainly: Binding affinity to amyloid beta (1 to 42) (unknown origin) assessed as retention time for amyloid beta (1 to 42) - 6-methyl-5,6-dihydro-4H-dibenzo[de,g]quinoline-10,11-dione adduct at 250 uM after 1 hr by LC/Q Tof-MS analysis.
A short description of data set [19]: Drug metabolism in pH 7.4 PBS assessed as auto-oxidization by measuring 6-methyl-5,6-dihydro-4H-dibenzo[de,g]quinoline-10,11-dione level at 50 uM measured after 1 hr by HPLC analysis. It is filed as physicochemical. The settings on record: buffer, pH 7.4, 1 h.
Data set [20] concerns the target Amyloid-beta precursor protein (Homo sapiens) (UniProt P05067). Description: Binding affinity to amyloid beta (1 to 42) (unknown origin) assessed as retention time for amyloid beta (1 to 42) (Lys28)-compound adduct at 250 uM after 1 hr by LC/Q Tof-MS analysis.
Data set [21] in a line: Drug metabolism in pH 7.4 PBS assessed as auto-oxidization by measuring 6-methyl-5,6-dihydro-4H-dibenzo[de,g]quinoline-10,11-dione level at 50 uM measured after 8 hrs by HPLC analysis. Particulars: buffer, pH 7.4, 8 h. It is filed as physicochemical.
In data set [22] the target is Amyloid-beta precursor protein (Homo sapiens) (UniProt P05067). Put plainly: Inhibition of amyloid beta (1 to 42) (unknown origin) aggregation by Thioflavin-T fluorescence assay.
Data set [23] can be described thus: Drug metabolism in pH 7.4 PBS assessed as auto-oxidization by measuring 6-methyl-5,6-dihydro-4H-dibenzo[de,g]quinoline-10,11-dione level at 50 uM measured after 24 hrs by HPLC analysis. It counts as physicochemical. The settings on record: buffer, pH 7.4, 24 h.
The nature of data set [24]: Drug metabolism in pH 7.4 PBS assessed as auto-oxidization by measuring 6-methyl-5,6-dihydro-4H-dibenzo[de,g]quinoline-10,11-dione level at 50 uM measured after 4 hrs by HPLC analysis. It counts as physicochemical. Particulars: buffer, pH 7.4, 4 h.
Data set [25] can be described thus: Drug metabolism in pH 7.4 PBS assessed as auto-oxidization by measuring 6-methyl-5,6-dihydro-4H-dibenzo[de,g]quinoline-10,11-dione level at 50 uM measured after 0 hrs by HPLC analysis. It counts as physicochemical. Particulars: buffer, pH 7.4, 0 h.
Data set [26] is described as follows: Drug metabolism in pH 7.4 PBS assessed as auto-oxidization by measuring 6-methyl-5,6-dihydro-4H-dibenzo[de,g]quinoline-10,11-dione level at 50 uM measured after 2 hrs by HPLC analysis. It is filed as physicochemical. Particulars: buffer, pH 7.4, 2 h.
Data set [27] addresses Amyloid-beta precursor protein (Homo sapiens) (UniProt P05067). Put plainly: Inhibition of amyloid beta (1 to 42) (unknown origin) aggregation at 5 uM in presence of reductant TCEP by Thioflavin-T fluorescence assay.
Data set [28] shares this target. Description: Inhibition of amyloid beta (1 to 42) (unknown origin) aggregation at 0.25 to 50 uM after 48 hrs by uranyl acetate staining based transmission electron microscopic method.
Data set [29] has the same target. Description: Binding affinity to amyloid beta (1 to 42) (unknown origin) assessed as retention time for amyloid beta (1 to 42) (Lys16)-compound adduct at 250 uM after 1 hr by LC/Q Tof-MS analysis.

Amyloid-beta precursor protein (Homo sapiens), sequence (P05067 whole entry): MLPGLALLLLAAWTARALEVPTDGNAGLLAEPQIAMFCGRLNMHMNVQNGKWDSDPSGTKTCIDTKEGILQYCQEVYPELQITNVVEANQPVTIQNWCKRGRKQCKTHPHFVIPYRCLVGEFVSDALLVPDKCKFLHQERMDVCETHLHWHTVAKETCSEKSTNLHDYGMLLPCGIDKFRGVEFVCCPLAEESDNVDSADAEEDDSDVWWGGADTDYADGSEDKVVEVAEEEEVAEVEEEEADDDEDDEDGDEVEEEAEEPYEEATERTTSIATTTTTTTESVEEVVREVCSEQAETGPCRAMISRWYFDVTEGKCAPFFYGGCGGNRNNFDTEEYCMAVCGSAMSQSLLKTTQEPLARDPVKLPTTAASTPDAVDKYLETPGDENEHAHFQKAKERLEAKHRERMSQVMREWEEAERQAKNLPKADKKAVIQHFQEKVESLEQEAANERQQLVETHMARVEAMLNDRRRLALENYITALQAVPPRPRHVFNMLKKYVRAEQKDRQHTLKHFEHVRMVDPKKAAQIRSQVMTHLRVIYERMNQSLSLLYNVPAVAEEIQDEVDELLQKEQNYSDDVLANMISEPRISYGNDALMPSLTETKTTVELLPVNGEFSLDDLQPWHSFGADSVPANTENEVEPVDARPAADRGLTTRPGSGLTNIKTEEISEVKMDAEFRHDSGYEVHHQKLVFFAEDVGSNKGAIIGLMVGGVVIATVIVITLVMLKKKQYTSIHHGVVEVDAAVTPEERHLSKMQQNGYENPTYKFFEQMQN

For the compound `CN1CCc2cccc3c4c(cc1c23)C=CC(=O)C4=O`, in [1], the result was inactive. For the same compound, the Drug uptake in data set [2] turned out to be 31 µM; in data set [5], 15 µM; in data set [7] it was 19 µM; in [8], 22 µM; in data set [9] it was 24 µM; in [12], 24 µM. In addition, the Drug uptake in data set [13] worked out at 24 µM. Also, the Drug metabolism entry in [3], in data set [10] and in data set [11] was “Metabolite_Detected” in each case. The inhibition result in data set [4] is “inactive”. Moreover, the inhibition was > 50% in data set [6] and “Tde” in data set [15]. In addition, the TIME in data set [14] was 6 to 7 h.

Turning to `CN1CCc2cccc3c2C1=CC(=O)C3=O`, the Drug metabolism result in data set [16] is “Metabolite_Detected”.

Regarding `CN1CCc2cccc3c2[C@H]1Cc1ccc(O)c(O)c1-3` [APOMORPHINE], the result in [17] and in data set [18] was Active. Moreover, the inhibition result in data set [4] and in data set [27] was “inactive” throughout. Moreover, the Drug metabolism in data set [19] amounted to 23 µM; in data set [21] it was 50 µM; in data set [23], 25 µM; in data set [24], 47 µM; in [25], 8 µM; in data set [26], 32 µM. Further, the Retention time amounted to 6.9 min in [20] and 6.4 min in data set [29]. In addition, the inhibition in data set [6] was > 50%; in data set [22], “Dose-dependent effect”; in data set [15], “Tde”. Besides, in data set [14], the TIME is 6 to 7 h. For the same compound, the inhibition result in [28] is “Active”.

Turning to `CNCCc1cccc2c3c(ccc12)C=CC(=O)C3=O`, in data set [16], the Drug metabolism result was “Metabolite_Detected”.
